The values that follow come from patent US20180099031A1, “DIABETES TREATMENT” (BETH ISRAEL DEACONESS MEDICAL CENTER, priority 2013, published 2018).

The assay relates to New onset diabetic NOD mice. Put plainly: α1 anti-trypsin treatment of new onset diabetic NOD mice, blood glucose levels. Format: in vivo. An excerpt:
Female NOD (NOD/LtJx) mice and NOD.SCID (NOD.CB17-Prkdcscid/J) mice were purchased from Jackson Laboratories (Bar Harbor, Me.) at 4 wks of age and maintained under pathogen-free conditions at the Harvard Institutes of Medicine (Boston, Mass.). The Harvard Medical School institutional review board approved all animal studies.
Blood glucose levels of NOD mice were monitored twice weekly with the Accu-Check blood glucose monitor system (Roche, Indianapolis, Ind.). When non-fasting blood glucose levels were in excess of 200 mg/dl on three consecutive measurements a diagnosis of new onset of diabetes was made. Mice with blood glucose levels between 250 to 350 mg/dl were used for the experiment described below. […] The 25% residual beta cell mass is similar to that found in newly diagnosed patients with T1DM.
New onset diabetic NOD mice were divided into two groups and treated with α1 anti-trypsin while simultaneously receiving intense insulin treatment (Group 1) or implantable insulin pellets (Group 2).
For the animals in Group 1, insulin doses were calibrated on the basis of three blood glucose measurements per day. The goal was to maintain blood glucose levels between 100-160 mg/dl. For blood glucose levels in excess of 160 mg/dl, NPH insulin was administered i.p. in doses ranging from 1 to 4 International Units depending upon the magnitude of hyperglycemia. For blood glucose level between 160 and 200 mg/dl, 1 IU was given. For blood glucose levels between 200 and 250 mg/dl, 2 IU of NPH insulin were given. For blood glucose levels between 250 and 300 mg/dl, 2 IU of NPH insulin were given. For blood glucose levels between 300 and 350 mg/dl, 3 IU of NPH insulin were given. For blood glucose levels in excess of 350 mg/dl, 4 IU of NPH insulin were given. Mice with high blood glucose levels in excess of 400 mg/dl for 2 days also received 0.2-0.4 ml warm normal saline subcutaneously in order to treat glycosuria-associated dehydration.
The animals in Group 2, LinBit™ sustained release insulin implants were used for management of hyperglycemia. LinBit™ sustained release insulin implants were purchased from LinShin Canada Inc. The LinBit™ implants (3-mm in length and 2 mm in diameter) were made from an admixture of insulin and micro-recrystallized palmitic acid and were erodible in vivo after being placed subcutaneously. The insulin release rate was about 0.1 U/day/implant for the time period over 2-4 weeks.
In our experiments, one or 2 LinBit™ implants were placed subcutaneously under the mid dorsal skin in newly onset diabetic mice with 3 previous measurements of blood glucose levels >200 mg/dL. The mice were anesthesized with ketamine/xylazine and the hair on the dorsal skin from a spot about 1 cm^2 was clipped using a small scissors with curved tips. […]

For the substance “α1 anti-trypsin: Aralast NP, a human α1-proteinase inhibitor derived from pooled human plasma, purchased from Baxter”, the blood glucose levels result (Group 1: with intense insulin therapy (NPH insulin i.p., three glucose measurements per day), Aralast NP 2 mg i.p. every 3 days, five injections, experiment 60-100 days, FIG. 1) was “fell to normoglycemic levels shortly after treatment began and remained at normal levels for the entire duration of the experiment”. Moreover, under “Group 2: with LinBit insulin implants s.c., Aralast NP 2 mg i.p. every 3 days, five injections, FIG. 2”, the “blood glucose levels shortly after treatment began” value is given as “fell to normoglycemic levels shortly after treatment began”. Besides, the “effect on diabetic state” value (glucose levels maintained within normal limits (50-120 mg/dL) by intensive insulin therapy) was “curative effect” and the “effect on diabetic state” value (hyperglycemic state managed by subcutaneously placed insulin pellets) was “less effective”.
